We go through 27 compounds from patent publication US12528802B2, “Heterocyclic compound” (Takeda Pharmaceutical Company Limited, priority 2019, dated 2026).

This experiment concerns the target T1, glucosylceramide synthase (Homo sapiens, UniProt Q16739).
T1 construct: made in house; host or cells: Expi293F cells (transient expression, pcDNA3.3-TOPO vector); microsome fraction used as enzyme source
T1 sequence (Q16739 1-394): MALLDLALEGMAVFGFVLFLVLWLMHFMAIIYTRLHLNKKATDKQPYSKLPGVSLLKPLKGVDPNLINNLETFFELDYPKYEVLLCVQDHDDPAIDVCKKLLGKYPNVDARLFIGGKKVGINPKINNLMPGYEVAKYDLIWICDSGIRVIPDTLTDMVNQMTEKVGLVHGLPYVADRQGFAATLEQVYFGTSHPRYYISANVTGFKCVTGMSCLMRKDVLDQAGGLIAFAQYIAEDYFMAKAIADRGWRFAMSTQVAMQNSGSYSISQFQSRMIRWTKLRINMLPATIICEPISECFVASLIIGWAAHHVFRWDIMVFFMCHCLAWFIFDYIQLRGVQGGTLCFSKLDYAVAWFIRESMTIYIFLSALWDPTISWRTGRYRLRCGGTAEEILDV
The experiment can be described thus: Glucosylceramide synthase (GCS) enzyme assay, microsome fraction, C8 glucosylceramide quantified by Rapidfire MS/MS. The experiment is classed as biochemical. As to conditions: test compound 10 μM; 1.7 μM UDP-glucose, 3 μM C8 ceramide; room temperature 60 min; read-out: GCS enzyme inhibitory rate at 10 μM (%) (% of control). The essentials:
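Test compound, 10 μM final, was run against human GCS from transfected Expi293F microsome fractions, using substrate solution of 6 μM C8 ceramide (in DOPC liposomes) plus 3.4 μM UDP-glucose, pH 7.5 Tris buffer, 60 min, room temperature. Product C8 glucosylceramide measured by Rapidfire MS/MS against an internal standard, % inhibition referenced to no-enzyme and DMSO wells.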
On to `O=C1C2=C(CN1c1ccc(OCC(F)(F)F)cc1)C(c1ccc(F)cc1OCC(F)(F)F)=NCCO2` [Example 209, 5-[4-fluoro-2-(2,2,2-trifluoroethoxy)phenyl]-7-[4-(2,2,2-trifluoroethoxy)phenyl]-2,3,6,7-tetrahydro-8H-pyrrolo[3,4-f][1,4]oxazepin-8-one], for which the inhibition at 10 µM was 98%.

On to `O=C1c2ccnc(-c3ccncc3OCC(F)(F)F)c2CN1c1ccc(C2(O)CCC2)cc1` [Example 210, 2-[4-(1-hydroxycyclobutyl)phenyl]-4-[3-(2,2,2-trifluoroethoxy)pyridin-4-yl]-2,3-dihydro-1H-pyrrolo[3,4-c]pyridin-1-one], for which the inhibition at 10 µM came to 99%. As to `O=C1CCCN1Cc1ccc(N2Cc3c(ccnc3-c3ccc(F)cc3OCC(F)(F)F)C2=O)cc1` [Example 211, 4-[4-fluoro-2-(2,2,2-trifluoroethoxy)phenyl]-2-{4-[(2-oxopyrrolidin-1-yl)methyl]phenyl}-2,3-dihydro-1H-pyrrolo[3,4-c]pyridin-1-one], the inhibition at 10 µM came to 81%. As for `CC(C)(O)c1ccc(N2Cc3c(ccnc3-c3ccc(F)cc3OCC(F)(F)F)C2=O)cc1F` [Example 212, 2-[3-fluoro-4-(2-hydroxypropan-2-yl)phenyl]-4-[4-fluoro-2-(2,2,2-trifluoroethoxy)phenyl]-2,3-dihydro-1H-pyrrolo[3,4-c]pyridin-1-one], the inhibition at 10 µM amounted to 99%. With `O=C1c2ccnc(-c3ccc(F)cc3OCC(F)(F)F)c2CN1c1cnn(CC2(F)CC2)c1` [Example 213, 2-{1-[(1-fluorocyclopropyl)methyl]-1H-pyrazol-4-yl}-4-[4-fluoro-2-(2,2,2-trifluoroethoxy)phenyl]-2,3-dihydro-1H-pyrrolo[3,4-c]pyridin-1-one], the inhibition at 10 µM is 94%. Take `O=C1c2ccnc(-c3ccccc3OCC(F)(F)F)c2CN1c1ccc(C2(F)COC2)cc1` [Example 214, 2-[4-(3-fluorooxetan-3-yl)phenyl]-4-[2-(2,2,2-trifluoroethoxy)phenyl]-2,3-dihydro-1H-pyrrolo[3,4-c]pyridin-1-one]: the inhibition at 10 µM amounted to 100%.

For the compound `CS(=O)(=O)c1ccc(N2Cc3cnn(-c4ccccc4OCC(F)(F)F)c3C2)nc1` [Example 215, 5-[5-(methanesulfonyl)pyridin-2-yl]-1-[2-(2,2,2-trifluoroethoxy)phenyl]-1,4,5,6-tetrahydropyrrolo[3,4-c]pyrazole], the inhibition at 10 µM came to 93%. `N#Cc1ccc(N2Cc3cnn(-c4ccccc4OCC(F)(F)F)c3C2)nc1` [Example 216, 6-{1-[2-(2,2,2-trifluoroethoxy)phenyl]-4,6-dihydropyrrolo[3,4-c]pyrazol-5(1H)-yl}pyridine-3-carbonitrile]: the inhibition at 10 µM came out at 98%. Consider `CN(C)C(=O)c1ccc(N2Cc3cnn(-c4ccccc4OCC(F)(F)F)c3C2)cc1` [Example 217, N,N-dimethyl-4-{1-[2-(2,2,2-trifluoroethoxy)phenyl]-4,6-dihydropyrrolo[3,4-c]pyrazol-5(1H)-yl}benzamide], for which the inhibition at 10 µM came out at 98%. With `N#CC1(c2ccc(N3Cc4c(ccnc4-c4ccc(F)cc4OCC(F)(F)F)C3=O)cc2)CCOCC1` [Example 218, 4-(4-{4-[4-fluoro-2-(2,2,2-trifluoroethoxy)phenyl]-1-oxo-1,3-dihydro-2H-pyrrolo[3,4-c]pyridin-2-yl}phenyl)oxan-4-carbonitrile], the inhibition at 10 µM was found to be 99%. `O=C1c2ccnc(-c3ccc(F)cc3OCC(F)(F)F)c2CN1c1ccc(C2(O)CCOCC2)c(F)c1` [Example 219, 2-[3-fluoro-4-(4-hydroxyoxan-4-yl)phenyl]-4-[4-fluoro-2-(2,2,2-trifluoroethoxy)phenyl]-2,3-dihydro-1H-pyrrolo[3,4-c]pyridin-1-one]: the inhibition at 10 µM is 98%. For `O=C1c2ccnc(-c3ccc(F)cc3OCC(F)(F)F)c2CN1c1ccc(C2(O)COC2)c(F)c1` [Example 220, 2-[3-fluoro-4-(3-hydroxyoxetan-3-yl)phenyl]-4-[4-fluoro-2-(2,2,2-trifluoroethoxy)phenyl]-2,3-dihydro-1H-pyrrolo[3,4-c]pyridin-1-one], the inhibition at 10 µM amounted to 89%. As for `CC(C)(C)[Si](C)(C)OC1(c2ccc(N3Cc4c(ccnc4-c4ccccc4OCC(F)(F)F)C3=O)cc2)CC1` [Example 221, 2-[4-(1-{[tert-butyl(dimethyl)silyl]oxy}cyclopropyl)phenyl]-4-[2-(2,2,2-trifluoroethoxy)phenyl]-2,3-dihydro-1H-pyrrolo[3,4-c]pyridin-1-one], the inhibition at 10 µM turned out to be 99%. `O=C1c2ccnc(-c3ccccc3OCC(F)(F)F)c2CN1c1ccc(C2(O)CC2)cc1` [Example 222, 2-[4-(1-hydroxycyclopropyl)phenyl]-4-[2-(2,2,2-trifluoroethoxy)phenyl]-2,3-dihydro-1H-pyrrolo[3,4-c]pyridin-1-one]: the inhibition at 10 µM was 100%.

For `CC(C)(C)[Si](C)(C)OC1(c2ccc(N3Cc4c(ccnc4-c4ccc(F)cc4OCC(F)(F)F)C3=O)cc2)CC1` [Example 224, 2-[4-(1-{[tert-butyl(dimethyl)silyl]oxy}-cyclopropyl)phenyl]-4-[4-fluoro-2-(2,2,2-trifluoroethoxy)phenyl]-2,3-dihydro-1H-pyrrolo[3,4-c]pyridin-1-one], the inhibition at 10 µM was 99%. For the compound `O=C1c2ccnc(-c3ccc(F)cc3OCC(F)(F)F)c2CN1c1ccc(C2(O)CC2)cc1` [Example 225, 4-[4-fluoro-2-(2,2,2-trifluoroethoxy)phenyl]-2-[4-(l-hydroxycyclopropyl)phenyl]-2,3-dihydro-1H-pyrrolo[3,4-c]pyridin-1-one], the inhibition at 10 µM came out at 94%. Consider `O=C1c2ccnc(-c3ccc(F)cc3OCC(F)(F)F)c2CN1c1ccc(C2(F)COC2)cc1` [Example 226, 2-[4-(3-fluorooxetan-3-yl)phenyl]-4-[4-fluoro-2-(2,2,2-trifluoroethoxy)phenyl]-2,3-dihydro-1H-pyrrolo[3,4-c]pyridin-1-one], for which the inhibition at 10 µM is 96%. As for `O=C1c2ccnc(-c3ccccc3OCC(F)(F)F)c2CN1c1ccc(C2(O)CC(OCc3ccccc3)C2)cc1` (stereo not drawn) [Example 227, (cis or trans)-2-{4-[3-(benzyloxy)-1-hydroxycyclobutyl]phenyl}-4-[2-(2,2,2-trifluoroethoxy)phenyl]-2,3-dihydro-1H-pyrrolo[3,4-c]pyridin-1-one], the figure is 100%; as for `O=C1c2ccnc(-c3ccccc3OCC(F)(F)F)c2CN1c1ccc(C2(O)CC(O)C2)cc1` (stereo not drawn) [Example 228, (cis or trans)-2-[4-(1,3-dihydroxycyclobutyl)phenyl]-4-[2-(2,2,2-trifluoroethoxy)phenyl]-2,3-dihydro-1H-pyrrolo[3,4-c]pyridin-1-one], 86%; as for `CC(C)(O)Cc1ccc(N2Cc3c(ccnc3-c3ccccc3OCC(F)(F)F)C2=O)cc1` [Example 229, 2-[4-(2-hydroxy-2-methylpropyl)phenyl]-4-[2-(2,2,2-trifluoroethoxy)phenyl]-2,3-dihydro-1H-pyrrolo[3,4-c]pyridin-1-one], 99%. On to `CN(C)C(=O)c1ccc(N2Cc3cnn(-c4ccccc4OCC(F)(F)F)c3C2)nc1` [Example 230, N,N-dimethyl-6-{1-[2-(2,2,2-trifluoroethoxy)phenyl]-4,6-dihydropyrrolo[3,4-c]pyrazol-5(1H)-yl}pyridine-3-carboxamide], for which the inhibition at 10 µM was found to be 73%. As for `CN(C)C(=O)c1ccc(N2Cc3cnn(-c4ccc(F)cc4OCC(F)(F)F)c3C2)nc1` [Example 231, 6-{1-[4-fluoro-2-(2,2,2-trifluoroethoxy)phenyl]-4,6-dihydropyrrolo[3,4-c]pyrazol-5(1H)-yl}-N,N-dimethylpyridine-3-carboxamide], the inhibition at 10 µM turned out to be 61%. On to `CC(C)(O)COc1ccc(N2Cc3c(ccnc3-c3ccccc3OCC(F)(F)F)C2=O)cn1` [Example 233, 2-[6-(2-hydroxy-2-methylpropoxy)pyridin-3-yl]-4-[2-(2,2,2-trifluoroethoxy)phenyl]-2,3-dihydro-1H-pyrrolo[3,4-c]pyridin-1-one], for which the inhibition at 10 µM was 96%. Take `CC(C)(O)c1ccc(N2Cc3c(ccnc3-c3ccc(F)cc3OCC(F)(F)F)C2=O)nc1` [Example 234, 4-[4-fluoro-2-(2,2,2-trifluoroethoxy)phenyl]-2-[5-(2-hydroxypropan-2-yl)pyridin-2-yl]-2,3-dihydro-1H-pyrrolo[3,4-c]pyridin-1-one]: the inhibition at 10 µM came out at 99%. For the compound `Cn1cc2c(c(-c3ccccc3OCC(F)(F)F)c1=O)CN(c1ccc(OC(F)F)cc1)C2=O` [Example 236, 2-[4-(difluoromethoxy)phenyl]-5-methyl-7-[2-(2,2,2-trifluoroethoxy)phenyl]-1H-pyrrolo[3,4-c]pyridine-3,6(2H,5H)-dione], the inhibition at 10 µM was found to be 100%. Take `N#CCc1ccc(N2Cc3c(ccnc3-c3ccc(F)cc3OCC(F)(F)F)C2=O)cc1` [Example 237, (4-{4-[4-fluoro-2-(2,2,2-trifluoroethoxy)phenyl]-1-oxo-1,3-dihydro-2H-pyrrolo[3,4-c]pyridin-2-yl}phenyl)acetonitrile]: the inhibition at 10 µM came out at 91%.

`Cn1nc(N2Cc3c(ccnc3-c3ccc(F)cc3OCC(F)(F)F)C2=O)cc1C1CC1` [Example 239, 2-(5-cyclopropyl-1-methyl-1H-pyrazol-3-yl)-4-[4-fluoro-2-(2,2,2-trifluoroethoxy)phenyl]-2,3-dihydro-1H-pyrrolo[3,4-c]pyridin-1-one]: the inhibition at 10 µM turned out to be 51%.
